Results taken from PMC6001824, “Expressional and functional interactions of two Apis cerana cerana olfactory receptors” (PeerJ, 2018).
Read-outs that look alike come from different tables or passages of the source.

Key:
[1] = molecular target: T1, AcerOr2 (Apis cerana cerana, UniProt G9J1I3); type: cell-based; conditions: for EC50: Sf9 cells expressing AcerOr2, Ca2+ imaging
Protocol: (§1) Spodoptera frugiperda Sf9 cells were purchased from the Chinese Academy of Sciences Cell Bank (Beyotime, Shanghai, China) were maintained as an adherent culture in Sf-900 III serum-free medium (SFM; Gibco, Invitrogen, Carlsbad, CA, USA) supplemented with 10% fetal bovine serum (Sijiqing, Hangzhou, China) and 100 μg mL^−1 penicillin-streptomycin at a constant temperature of 28 °C in a humidified incubator (Thermo Scientific, Cornelius, OR, USA) in the absence of CO2 in T-25 tissue culture flasks (Corning Inc., Corning, NY, USA). Sf9 cells were grown to approximately 80–90% confluence as observed under a light microscope. Cells were dislodged from the flask by washing with the media contained in the flask. In total, 1 × 10^6 Sf9 cells were suspended in 2 mL of Sf-900 III SFM in each well of a Nunclone six-well tissue culture plate (Corning Inc., Corning, NY, USA). Confluent cells (80–90%) were transiently transfected with 2.0 μg pIB-AcerOr1/pIB-AcerOr2 using 8 μL of Cellfectin II reagent (Invitrogen, Carlsbad, CA, USA) in six-well plates according to the manufacturer’s instructions. The medium containing plasmid DNA and Cellfectin II was removed after incubation of the cells with a DNA/Cellfectin II mix for 3–5 h. The cells were washed twice with fresh Sf-900 III SFM and overlaid with 2 mL of fresh SFM. […] After incubation for 48 h, assays were performed.
(§2) To identify candidate ligands for selected ORs, we tested 32 compounds (most of which were volatile compounds from host plants, including aldehydes, alcohols, monoterpenes, benzoates, and sesquiterpenes) at a final concentration of 10^−6 M by Ca^2+ imaging in an in vitro cell expression system. […] After the cells were transfected for 48 h, the medium was removed and the cells were washed three times with Hank’s balanced salt solution (without Ca^2+). The cells were subsequently cultured at 37 °C in the dark for 30 min in the presence of 2 μmol L^−1 Fluo-4-AM (Beyotime, Shanghai, China) and were stimulated by the chemical odorants. Each test chemical ligand was applied to Fluo-4-loaded Sf9 cells expressing AcerOr1 at a final concentration of 10^−6 M, and the increase in fluorescence caused by the substrate was measured and expressed as a fraction of the fluorescence elicited by the calcium ionophore ionomycin. The Ca^2+-free solution used was Dulbecco’s phosphate buffered saline supplemented with 0.4 mM ethylene glycol tetra-acetic acid (EGTA).
(§3) EC50 values were determined using GraphPad Prism 6.0 (GraphPad; San Diego, CA, USA). The formula used for calculating the concentration-response using a 4-parameter logistic model was as follows: Y=Bottom+(Top−Bottom)/1+10^(LogEC50−X)^*HillSlope where Y and X are the response showing a sigmoid shape and the logarithm of the concentration.

[2] = molecular target: AcerOr1 (Apis cerana cerana, UniProt G8HAQ8); type: cell-based; conditions: for HillSlope: Sf9 cells expressing AcerOr1, 4-parameter logistic fit; for EC50: Sf9 cells expressing AcerOr1, Ca2+ imaging; for Emax: Sf9 cells expressing AcerOr1, concentration-response, 4-parameter logistic fit; for response of AcerOr1-expressing cells (increase in intracellular Ca2+): odorant at 10^−6 M
Sequence of AcerOr1 (G8HAQ8 entry or part of it): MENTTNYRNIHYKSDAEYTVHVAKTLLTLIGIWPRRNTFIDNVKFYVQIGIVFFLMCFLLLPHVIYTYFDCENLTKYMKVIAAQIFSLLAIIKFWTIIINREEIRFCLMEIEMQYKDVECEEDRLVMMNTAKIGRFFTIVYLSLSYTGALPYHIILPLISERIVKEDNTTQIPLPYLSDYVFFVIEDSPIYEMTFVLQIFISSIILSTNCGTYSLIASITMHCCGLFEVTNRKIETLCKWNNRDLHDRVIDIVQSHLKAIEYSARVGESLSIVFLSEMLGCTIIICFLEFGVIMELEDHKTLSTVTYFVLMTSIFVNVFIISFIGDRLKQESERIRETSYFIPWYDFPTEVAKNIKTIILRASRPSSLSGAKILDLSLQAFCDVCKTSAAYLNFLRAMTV
Protocol: as §1, §2, §3

[3] = system: antennae of Apis cerana cerana; assay: Electroantennography (EAG) of isolated antennae; conditions: 500 μg μL^−1 of compound in liquid paraffin, relative to blank
Protocol: The level of OR expression in antenna olfactory neurons can be indirectly measured by recording the EAG responses of the isolated antennae to the corresponding odorant ligand. We compared data previously obtained by Ca^2+ imaging in vitro to determine whether these odorants can cause electrophysiological responses in the antennae with physiological activity. […] The compounds were dissolved and diluted in liquid paraffin to final concentrations of 0.1, 1, 10, 100, and 500 μg μL^−1. Pure liquid paraffin wax was used as a blank, and results were calculated relative to the blank. The antennae were carefully cut at the base and placed into EAG electrode probes (Syntech, Hilversum, The Netherlands) with a drop of Spectra 360 electrode gel (Parker Lab, Inc., Fairfield, NJ, USA). Filter paper strips (5 × 50 mm) were loaded with 20 μL of the different test solutions and inserted into glass Pasteur pipettes and served as sources of stimuli. Humidified airflow was delivered at a constant rate of 700 mL min^−1 by an air stimulus controller CS-55 (Syntech, Kirchzarten, Germany). Odor stimuli were administered three times at 2 mL s^−1 for 0.5 s at 30 s intervals. EAG recordings of antennal responses to each stimulus were documented as voltage waveforms using an IDAC-4 computer-operated amplifier controller (Syntech, Kirchzarten, Germany), and the data were analyzed with the EAGPro software (Syntech, Kirchzarten,Germany). A newly prepared antenna was used for each recording. A dose-response curve was plotted using the EAG recordings (in mV) for each concentration.

[4] = molecular target: T1, AcerOr2; type: cell-based; conditions: odorant at 10^−6 M
[5] = system: endogenous Orco in Sf9 cells; assay: Ca2+ imaging of control Sf9 cells transfected with pIB/V5 empty vector; type: cell-based, Spodoptera frugiperda; conditions: odorant at 10^−6 M

T1 sequence (G9J1I3 entry or part of it): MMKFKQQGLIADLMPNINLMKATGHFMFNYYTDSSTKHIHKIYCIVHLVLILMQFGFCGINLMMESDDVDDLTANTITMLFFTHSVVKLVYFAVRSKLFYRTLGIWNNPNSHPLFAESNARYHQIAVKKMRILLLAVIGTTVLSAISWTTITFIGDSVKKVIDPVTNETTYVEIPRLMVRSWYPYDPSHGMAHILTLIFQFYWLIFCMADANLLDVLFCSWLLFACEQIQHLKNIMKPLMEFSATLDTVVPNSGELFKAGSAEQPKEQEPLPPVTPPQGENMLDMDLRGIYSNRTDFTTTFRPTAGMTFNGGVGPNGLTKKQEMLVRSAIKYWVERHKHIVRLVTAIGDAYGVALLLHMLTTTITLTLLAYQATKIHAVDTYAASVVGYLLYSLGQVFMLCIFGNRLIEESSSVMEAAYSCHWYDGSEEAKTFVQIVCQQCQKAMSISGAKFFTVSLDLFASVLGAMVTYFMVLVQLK

Row | response of cells expressing AcerOr2 alone (increase in intracellular Ca2+) [4] | HillSlope ([1]; Sf9 cells expressing AcerOr2, 4-parameter logistic fit) | Emax ([1]; Sf9 cells expressing AcerOr2, concentration-response, 4-parameter logistic fit) | Compound | EC50 ([1]; read-out: EC50) [µM] | HillSlope [2] | EC50 [2] | Emax [2] | response of AcerOr1-expressing cells (increase in intracellular Ca2+) [2] | EC50 ([2]; read-out: EC50) [µM] | EAG response [3] [mV] | EC50 [1] [µM] | response of control cells (pIB/V5 empty vector, endogenous Orco only) [5]
1 | – | – | – | CCCCCCCCCO [1-Nonanol] | > 10 | 0.80 ± 0.06 | 10^−7 to 10^−8 M | 69.86 ± 0.44 | elicited responses | – | – | – | –
2 | – | – | – | C=CC(C)=CCC=C(C)C [Ocimene] | > 10 | 0.50 ± 0.09 | 10^−7 to 10^−8 M | 144.27 ± 0.59 | elicited responses | 0.0532 | – | – | –
3 | – | – | – | C=CCc1ccc(O)c(OC)c1 [Eugenol] | – | 0.74 ± 0.06 | 10^−7 to 10^−8 M | 88.53 ± 0.52 | elicited responses | – | 9.92 ± 0.58 | > 10 | –
4 | – | – | – | CC/C=C\C/C=C\C/C=C\CCCCCCCC(=O)O [Linolenic acid] | – | 0.87 ± 0.03 | 10^−7 to 10^−8 M | 85.74 ± 0.83 | elicited responses | – | 10 ± 0.54 | > 10 | –
5 | – | – | – | CCCCCCCCCCC(=O)O [Undecanoic acid] | > 10 | 0.73 ± 0.05 | 10^−7 to 10^−8 M | 116.69 ± 1.15 | elicited responses | – | – | – | –
6 | – | – | – | CCCCCCCCCCCC(=O)O [Lauric acid] | > 10 | 0.49 ± 0.06 | 10^−7 to 10^−8 M | 138.79 ± 0.5 | elicited responses | 0.0481 | – | – | –
7 | – | – | – | CCCCCCCCO [1-Octyl alcohol] | > 10 | 0.63 ± 0.04 | 10^−7 to 10^−8 M | 106.77 ± 2.01 | elicited responses | – | – | – | –
8 | greatest increase in intracellular Ca^2+ | 0.56 ± 0.08 | 241.67 ± 0.74 | CCc1ccc(NC(=O)CSc2nnc(-c3cccnc3)n2CC)cc1 [VUAA1, N-(4-ethylphenyl)-2-((4-ethyl-5-(3-pyridinyl)-4H-1,2,4-triazol-3-yl)thio) acetamide] | 0.0662 | 1.72 ± 1.48 | – | 4.64 ± 0.10 | sensitive | – | 18.71 ± 1.45 | – | unable to respond
9 | – | – | – | CCCCCCOC(C)=O [Hexyl acetate] | > 10 | 0.73 ± 0.05 | 10^−7 to 10^−8 M | 115.94 ± 1.5 | elicited responses | – | – | – | –
10 | – | – | – | CC(C)=CCC/C(C)=C\CO [Nerol] | – | 0.52 ± 0.06 | 10^−7 to 10^−8 M | 184.92 ± 0.55 | elicited responses | – | – | > 10 | –
